The record followed here is ChEMBL document CHEMBL1649086, “Evaluation of novel N1-methyl-2-phenylindol-3-ylglyoxylamides as a new chemotype of 18 kDa translocator protein-selective ligand suitable for the development of positron emission tomography radioligands” (J Med Chem, 2011).

Active and inactive are the calls of the source. The calls are words filed in the database; no cut-off is given here.

The target of series [1] is Translocator protein (Rattus norvegicus, UniProt P16257). Briefly: Displacement of [3H]PK11195 from TSPO in rat kidney mitochondrial membrane.
Chain of Translocator protein (P16257 whole entry, looked up): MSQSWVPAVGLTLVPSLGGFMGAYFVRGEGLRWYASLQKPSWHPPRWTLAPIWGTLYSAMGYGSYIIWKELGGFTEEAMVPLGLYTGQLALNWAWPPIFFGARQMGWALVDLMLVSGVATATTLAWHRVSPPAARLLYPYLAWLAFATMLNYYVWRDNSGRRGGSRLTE
Series [2] deals with GABA-A receptor, central benzodiazepine site (Rattus norvegicus). Briefly: Displacement of [3H]flumazenil from central benzodiazepine site of GABA-A receptor in rat cerebral cortex membrane after 90 mins. On the technique in general: Loss of bound radioactivity is the signal in a displacement assay; it reports binding, not function.
Series [3] is described as follows: Drug level in monkey putamen at 0.155 to 0.859 nmol/kg, iv after 40 mins. Particulars: rhesus monkey, in vivo. The format is ADME, organism-based, Macaca mulatta.
Series [4] concerns Plasma. The experiment in a line: Fraction unbound in monkey plasma at 0.155 to 0.859 nmol/kg, iv by PET analysis. Particulars: rhesus monkey, in vivo. The format is ADME, organism-based, Macaca mulatta.

By Ki is commonly meant the dissociation constant of the complex between target and ligand, obtained from inhibition or displacement. Take `CCCN(CCC)C(=O)C(=O)c1c(-c2ccc([N+](=O)[O-])cc2)n(C)c2ccccc12`: the Ki in series [1] came to 5.7 nM.

`CCCCCCN(CCCCCC)C(=O)C(=O)c1c(-c2ccccc2)[nH]c2ccccc12`: the outcome in series [2] was inactive.

As to `CCCCCCN(CCCCCC)C(=O)C(=O)c1c(-c2ccc(F)cc2)n(C)c2ccccc12`, the inhibition constant Ki in series [1] was 1.07 nM. Further, the outcome in series [2] was inactive.

Take `CCCCN(CC)C(=O)C(=O)c1c(-c2ccccc2)[nH]c2ccccc12`: the result in series [2] was inactive.

Consider `CCCCN(CCCC)C(=O)C(=O)c1c(-c2ccccc2)n(C)c2ccccc12`, for which the inhibition constant (Ki) in series [1] was 0.3 nM. The outcome in series [2] was inactive.

Molecule `CCCN(CCC)C(=O)C(=O)c1c(-c2ccc(F)cc2)n(C)c2ccccc12` came in with an inhibition constant (Ki) in series [1] of 19.8 nM. The outcome in series [2] was inactive.

In the case of `CCCCN(CCCC)C(=O)C(=O)c1c(-c2ccccc2)[nH]c2ccccc12`, the result in series [2] was inactive.

In turn, `CCCCCCN(CCCCCC)C(=O)C(=O)c1c(-c2ccccc2)n(C)c2ccccc12` yielded a Ki in series [1] of 0.299 nM. In addition, the outcome in series [2] was inactive.

On to `CCCN(CCC)C(=O)C(=O)c1c(-c2ccc(F)cc2)[nH]c2ccccc12`, for which the result in series [2] was inactive.

Consider `CCCN(CCC)C(=O)C(=O)c1c(-c2cc[11c]([N+](=O)[O-])cc2)n(C)c2ccccc12`, for which the SUV in series [3] is 2.32. In series [4], this molecule displayed a Fu of 0.71%.

In series [1], `CCCCCN(C)C(=O)C(=O)c1c(-c2ccccc2)n(C)c2ccccc12` yielded an inhibitory constant (Ki) of 38.2 nM. Besides, the result in series [2] was inactive.

Turning to `CN(Cc1ccccc1)C(=O)C(=O)c1c(-c2ccc(F)cc2)n(C)c2ccccc12`, the affinity in series [1] corresponds to a Ki of 6.77 nM. In addition, the outcome in series [2] was inactive.

`CCN(Cc1ccccc1)C(=O)C(=O)c1c(-c2ccccc2)[nH]c2ccccc12`: the result in series [2] was inactive.

In turn, `CCCN(CCC)C(=O)C(=O)c1c(-c2ccccc2)n(C)c2ccccc12` came in with an inhibitory constant (Ki) in series [1] of 19.5 nM. Further, the outcome in series [2] was inactive.

Molecule `CN(Cc1ccccc1)C(=O)C(=O)c1c(-c2ccccc2)[nH]c2ccccc12` came in with a Ki in series [1] of 12 nM. In series [2], the result was inactive.

`CCCN(CCC)C(=O)C(=O)c1c(-c2ccccc2)n(C)c2ccc(F)cc12` gave a Ki in series [1] of 23.7 nM. Also, in series [2], the outcome was inactive.

As to `CCCN(CCC)C(=O)C(=O)c1c(-c2ccccc2)[nH]c2ccccc12`, in series [2], the outcome was inactive.

As for `CCCCCN(C)C(=O)C(=O)c1c(-c2ccccc2)[nH]c2ccccc12`, the result in series [2] was inactive.

For `CN(Cc1ccccc1)C(=O)C(=O)c1c(-c2ccc(F)cc2)[nH]c2ccccc12`, the affinity in series [1] corresponds to a Ki of 1.8 nM. Besides, the outcome in series [2] was inactive.

In the case of `CCCCCCN(CCCCCC)C(=O)C(=O)c1c(-c2ccc(F)cc2)[nH]c2ccccc12`, in series [2], the result was inactive.

Regarding `CCN(Cc1ccccc1)C(=O)C(=O)c1c(-c2ccccc2)n(C)c2ccccc12`, the affinity in series [1] corresponds to a Ki of 2.92 nM. The result in series [2] was inactive.

Take `CCCN(CCC)C(=O)C(=O)c1c(-c2ccccc2)[nH]c2ccc(F)cc12`: the result in series [2] was inactive.

With `CCCCN(C)C(=O)C(=O)c1c(-c2ccccc2)n(C)c2ccccc12`, affinity in series [1] was put at a Ki of 190 nM. For the same molecule, in series [2], the result was inactive.

Turning to `CCCCN(C)C(=O)C(=O)c1c(-c2ccccc2)[nH]c2ccccc12`, the outcome in series [2] was inactive.

In turn, `CN(Cc1ccccc1)C(=O)C(=O)c1c(-c2ccccc2)n(C)c2ccccc12` gave a Ki in series [1] of 20.9 nM. The outcome in series [2] was inactive.

The molecule `CCCCN(CC)C(=O)C(=O)c1c(-c2ccccc2)n(C)c2ccccc12` showed a Ki in series [1] of 60.2 nM. The result in series [2] was inactive.
